From patent US20260185163A1, “MEN1 MUTATIONS AND USES THEREOF” (DANA-FARBER CANCER INSTITUTE, INC., priority 2022, published 2026)
“Also recorded” adds a separate entry of the source.

Tests used:
[1] = system: MOLM13 (MLL::AF9), MV4;11 (MLL::AF4) and OCI-AML3 (NPM1c) cells expressing MEN1-M327I, -G331R and -T349M; test: dose-response assay after lentiviral expression of MEN1 mutants; format: cell-based, human; conditions: viable cells after 10 days of drug treatment
Description: Cell lines were obtained from the “American Type Culture Collection” (ATCC) or the “Deutsche Sammlung von Mikroorganismen und Zellkulturen” (DSMZ) and cultured in RPMI-1640™ (for MOLM13, MV4;11 and OCI-AML3) or DMEM™ (for HEK-293T)+10% fetal bovine serum (FBS)+1% penicillin/streptomycin (P/S) (Life Technologies/Thermo Fisher Scientific) at 37° C., 5% CO2 atmosphere and 95% humidity. Cell lines were tested and maintained mycoplasma negative throughout all experiments. […]
To determine Menin-inhibitor responses of MOLM13, MV4;11 or OCI-AML3 cell lines expressing MEN1 mutants, 3×10^3 cells were plated per well in a non-tissue culture treated 96-well plate. […] After 6 days, cells were split 1:7 and counts of viable cells in each well were determined after 10 d of treatment by flow cytometry (LSRFortessa™ with High-throughput sampler (HTS), BD Biosciences). Relative cell counts were calculated as % of DMSO control. The average of each triplicate was calculated and the mean of all replicates was plotted. […]

[2] = system: M327I and T349M-mutant Menin; test: isothermal titration calorimetry (ITC); format: binding, human; conditions: mutant vs WT Menin
Description: All calorimetric experiments were carried out in ITC buffer (25 mM Hepes (pH 7.5), 200 mM NaCl, 1.0 mM TCEP) at 25° C. using an Affinity ITC from TA Instruments (New Castle, DE) equipped with autosampler. SNDX-5613 was dissolved in DMSO and diluted with the ITC buffer to final concentrations (50-200 μM. 1% DMSO). Protein sample was adjusted to contain 1% DMSO final concentration. The calorimetric cell, containing buffer or Menin (10 μM WT Menin, 5 μM M327I Menin, or 10 μM T349M Menin) was titrated by injecting 2.5 μl of SNDX-5613 solution with the concentration of 100 μM, 50 μM or 200 μM, respectively, 24 times with stirring speed at 75 rpm. The resulting isotherms were subtracted against buffer runs and fitted with a single-site model to yield thermodynamic parameters of ΔH and ΔS, stoichiometry, and KD using NanoAnalyze software (TA Instruments).

[3] = system: MEN1 M327I/WT MV4;11 cell lines; test: dose-response assay, viable cell counts by flow cytometry; format: cell-based, human; conditions: MV4;11 MEN1 M327I/WT
Description: MV4;11 and OCI-AML3 cell lines were passaged 24 h prior to nucleofection. The guide RNA (150 μmol) (sequence: 5′-[…]-3′) was added to Alt-R S.p. HiFi Cas9 nuclease (Integrated DNA Technologies) (125 μmol) followed by an incubation at room temperature (RT) for 20 min to allow formation of ribonucleoprotein (RNP) complexes. 2×10^5 cells were sedimented at 200 g for 10 min at RT, washed with PBS and resuspended in the SG Cell Line Nucleofector™ Solution (Lonza). Cells, Alt-R™ Cas9 Electroporation Enhancer (Lonza) (120 μmol) and the HDR donor oligonucleotide containing the MEN1-M327I mutation as well as a silent mutation at the protospacer adjacent motif (PAM) site (120 μmol) (sequence:5′-[…]-3′) were added to the RNP complex. For wildtype (WT) control, phosphate buffered saline (PBS) (Gibco™, Fisher Scientific) was added to the resuspended cells. Nucleofection was performed using a 16-well 20 μl Nucleocuvette™ stripe (Lonza) in a 4D-Nucleofector™ X Unit (Lonza) (program FF-100). Cells were incubated overnight in RPMI-1640+10% FCS+1% P/S containing 1 μM Alt-R™ HDR enhancer V2 (Lonza) (or DMSO for WT control). The following day, the medium was replaced by RPMI-1640+10% FBS+1% P/S. Single clones were selected in methylcellulose (MethoCult™ M3234, Stemcell™ Technologies) supplemented with 10% RPMI-1640, 10% FBS, 1% P/S and 25 nM SNDX-5613 (or DMSO for WT control), starting 3 days after nucleofection, and expanded in RPMI-1640+10% FCS+1% P/S supplemented with 25 nM SNDX-5613 (or DMSO for WT control). For the in vitro clonal selection assay of bulk nucleofected cells over time, 5×10^3 cells (3 replicates per condition) were seeded in RPMI-1640+10% FBS+1% P/S supplemented with 50 nM SNDX-5613 (or DMSO for WT control) 3 days after nucleofection. Cells were replated in fresh medium+drug every 3 days and viable cells were counted using the LSRFortessa™ (BD Biosciences) flow cytometer. Cumulative cell growth was calculated over 28 days. At each timepoint, cell pellets were frozen and genomic DNA was extracted subsequently using the DNeasy Blood and Tissue Kit™ (QIAGEN). Digital droplet-based PCR was performed from the genomic DNA to assess editing efficiency in the bulk cells over time. To analyze HDR efficiency in single cell clones, genomic DNA was PCR amplified using the Q5 High-Fidelity 2× Master Mix™ (New England BioLabs) and primers (forward: 5′-[…]-3′; reverse: 5′-[…]-3′), and the resulting 641 bp fragment containing the Cas9 cut site was gel-purified using the QIAquick Gel Extraction Kit™ (QIAGEN). Sanger sequencing was used to analyze HDR efficiency (primer 5′-[…]-3′).
To determine Menin-inhibitor responses of MOLM13, MV4;11 or OCI-AML3 cell lines expressing MEN1 mutants, 3×10^3 cells were plated per well in a non-tissue culture treated 96-well plate. The Menin-inhibitors were titrated on these cells in the following dose-range: DMSO, 3.9 nM, 7.813 nM, 15.625 nM, […], 62.5 nM, 125 nM, 250 nM, 500 nM, 1000 nM. Cells were treated in triplicates on each plate and the experiment was repeated 4 times. After 6 days, cells were split 1:7 and counts of viable cells in each well were determined after 10 d of treatment by flow cytometry (LSRFortessa™ with High-throughput sampler (HTS), BD Biosciences). Relative cell counts were calculated as % of DMSO control. The average of each triplicate was calculated and the mean of all replicates was plotted. Error bars represent the standard error of means (SEM).

Structure (SMILES)	drug sensitivity / resistance phenotype [1]	change in mutant binding affinities (Kd) determined by isothermal calorimetry [2] [fold]	increase of IC50 compared to MEN1-wild-type cells [3] [fold]
CNc1nc(NC2CCN(Cc3ccc4c(cc(C#N)n4CC45CC(NC=O)(C4)C5)c3C)CC2)c2cc(CC(F)(F)F)sc2n1 [MI-3454]	resistance phenotype could similarly be observed	–	–
CCN(C(=O)c1cc(F)ccc1Oc1cncnc1N1CC2(CCN(C[C@H]3CC[C@H](NS(=O)(=O)CC)CC3)CC2)C1)C(C)C [SNDX-5613, revumenib]	robust decrease in SNDX-5613 sensitivity; also recorded: sufficient to establish resistance	> 50	16
